According to patent US7989585B2, “Chronic treatment regimen using glucagon-like insulinotropic peptides” (Eli Lilly and Company, priority 2000, dated 2011):
No end group written: not given here.

Assays:
human GLP-1 receptor = target: T1, human GLP-1 receptor (Homo sapiens, UniProt P43220); test: In vitro potency assay (CRE-BLAM fluorescence assay); assay type: cell-based; details: for In vitro activity relative to Val^8-GLP-1(7-37)OH: from EC50, HEK-293 Aurora CRE-BLAM cells, Val^8-GLP-1(7-37)OH control = 1; for potency higher than Val^8-GLP-1(7-37)OH: in vitro potency, approximate
T1 construct: expressed in transfected cells; host or cells: HEK-293 Aurora CRE-BLAM cells
Text: The assay is discussed in more detail on page 17 and in example 3.
These HEK-293 cells have stably integrated a DNA vector having a cAMP response element (CRE) driving expression of the β-lactamase (BLAM) gene. […] The assay is further described in Zlokarnik, et al. (1998) Science 279:84-88 (See also Example 3).
The day after seeding, the medium is replaced with plasma free medium.

[1] = cited from earlier work

T1 sequence (P43220 24-463): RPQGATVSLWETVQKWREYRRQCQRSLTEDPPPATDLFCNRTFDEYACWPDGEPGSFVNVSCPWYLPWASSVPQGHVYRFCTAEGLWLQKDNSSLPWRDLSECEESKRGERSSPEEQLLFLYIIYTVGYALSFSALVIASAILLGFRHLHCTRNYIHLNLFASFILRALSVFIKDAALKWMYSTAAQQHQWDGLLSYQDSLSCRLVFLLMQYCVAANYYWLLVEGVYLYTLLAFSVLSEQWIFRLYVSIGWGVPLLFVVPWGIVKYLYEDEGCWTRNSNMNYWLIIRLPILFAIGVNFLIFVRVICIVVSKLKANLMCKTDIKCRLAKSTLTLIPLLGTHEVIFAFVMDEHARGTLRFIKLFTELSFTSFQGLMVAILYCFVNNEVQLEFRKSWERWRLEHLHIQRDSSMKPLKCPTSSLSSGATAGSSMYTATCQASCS

Substance | In vitro activity relative to Val^8-GLP-1(7-37)OH (human GLP-1 receptor) | further results
Arg^34Lys^26-(N-ε-(γ-Glu(N-α-hexadecanoyl)))-GLP-1(7-37) [reference compound] | 1.92 | 
Exendin-4 [reference compound] | 4.5 | potency higher than Val^8-GLP-1(7-37)OH (human GLP-1 receptor): approximately 5 fold
GLP-1(7-37)OH |  | intact GLP-1 levels ([1]; 2.4 pmol/kg/min (Toft-Nielsen et al.)): ~22.5 picomolar; plasma levels of intact GLP-1 ([1]; continuous administration 0.75 pmol/kg/min for 180 min, last 120 min of treatment (Naslund et al.)): approximately 20 picomolar
Gly^8-GLP-1(7-37)OH (HGEGTFTSDVSSYLEGQAAKEFIAWLVKGRG-OH; UniProt P01275 98-128, looked up, variant A8G) [GLP-1 analog] | 1.67 | 
Val^8-Arg^26-GLP-1(7-37)OH | 1.47 | 
Val^8-GLP-1(7-36)NH2 | 1.06 | 
Val^8-Glu^22-GLP-1(7-37)OH | 3.33 | potency higher than Val^8-GLP-1(7-37)OH (human GLP-1 receptor): approximately 3 fold
Val^8-Leu^16-GLP-1(7-37)OH | 1.13 | 
Val^8-Lys^22-GLP-1(7-37)OH | 1.22 | 
Val^8-Trp^12-GLP-1(7-37)OH | 1.07 | 
Val^8-Tyr^12-GLP-1(7-37)OH | 1.73 | 
